These results are taken from patent US6683029B1, “Halopyrimidines” (Bayer Aktiengesellschaft, priority 1999, dated 2004).

Data set [1] can be described thus: logP by HPLC (EEC Directive 79/831 Annex V. A8).
A further data set concerns Plutella. The data set is described as follows: Plutella test/synthetic feed. The conditions noted are these: Plutella larvae on treated synthetic feed; concentration and time not stated. In kind it is in vivo. As to the method: Plutella Test/Synthetic Feed [table] […] A stated amount of the preparation of active compound of the desired concentration is pipetted onto a standardized amount of synthetic feed. After the methanol has evaporated, a film box lid covered with about 100 Plutella eggs is placed onto each cavity. The freshly hatched larvae migrate onto the treated synthetic feed. After the desired period of time, the kill in % is determined. 100% means that all animals have been killed; 0% means that none of the animals have been killed.

Take `CCSCc1ccccc1Oc1ncnc(Oc2ccccc2C(=NOC)C(=O)OC)c1F` [Example 16]: the logP (usually a log measure of how a compound divides between an organic and an aqueous phase) in data set [1] (HPLC, gradient method, acetonitrile/0.1% aqueous phosphoric acid) turned out to be 3.97.

For `CON=C(C(=O)OC)c1ccccc1Oc1ncnc(Oc2cc(Cl)ccc2Cl)c1F` [Example 10], in the data set with Plutella, the “activity (kill)” value is given as “good activity”.

For `CON=C(C(=O)OC)c1ccccc1Oc1ncnc(Oc2cccc(F)c2)c1F` [Example 1, Methyl 2-{2-[6-(3-fluorophenoxy)-5-fluoro-pyrimidin-4-yloxy]-phenyl}-2-methoxyiminoacetate], the chromatographic logP (as a rule, lipophilicity estimated from chromatographic retention) in data set [1] turned out to be 3.46.
